Here are results for nine compounds from patent publication US9709555B2, “Compound for generating second harmonic of light, dye composition for generating second harmonic of light, and cell examination method” (KEIO UNIVERSITY, priority 2013, dated 2017).

≈ marks a conversion by molar mass, not a printed value. Entries after “also recorded” stand apart in the source; their conditions may differ.

Series [1] is described as follows: Evaluation of solubility of dyes. Type of series: physicochemical. The settings on record: for Dissolving in DMSO: DMSO added to a dye concentration of about 100 mM; for solubility: extracellular fluid (Artificial Cerebrospinal Fluid), aqueous buffer, kinetic from dmso stock; for solubility / Solubility (μM): solubility into a buffer, DMSO solution diluted 1000 times with extracellular fluid; for Solubility into a buffer: result in words. On the procedure:
Furthermore, using anionic, neutral, zwitter, and dicationic dyes shown in Table 1, solubility into a buffer, toxicity, and presence or absence of SHG and TPF signals when applied to cultured cells (CHO cells) were evaluated, respectively. Herein, the dyes #1 to 5 are dyes for generating a second harmonic of light outside of the range of the present invention, and the dyes #6 and 7 are dyes for generating a second harmonic of light within the range of the present invention.
DMSO (dimethyl sulfoxide) was added to the synthesized dye group (dyes #1 to #7) in Table 2 to have a concentration of a dye at about 100 mM and dissolving was attempted.
(§1) DMSO solutions of the dyes #1 to #3, #4, #5 and Ap3 were diluted 1000 times using an extracellular fluid (Artificial Cerebrospinal Fluid), and when all were assumed to be dissolved, the final concentration was set at about 100 μM.

Series [2] relates to CHO cells. The experiment in a line: Evaluation of SHG and TPF signals of dyes applied to CHO cells. Conditions: about 100 μM dye, pulse laser at 1,000 nm, qualitative comparison. Type of series: cell-based, Chinese Hamster. On the procedure:
as §1
A CHO (Chinese Hamster Ovary) cell cultured on a cover glass was used as an observation subject, immersed into the above described dye solution to try dyeing a cell membrane, and directly observed under a microscope within several minutes.
A multiphoton laser microscope system (FV1000MPE manufactured by Olympus Corporation) on which an ultrashort femtosecond laser (MaitaiHP manufactured by Newport) was mounted was used for the observation, and SHG and two-photon fluorescence (Two-Photon Fluorescence: TPF) after irradiation by a pulse laser at 1,000 nm were observed under the same detection condition for each dye. Three images were obtained by changing fields of view per each dye, and signal intensities were qualitatively compared among the dyes. FIGS. 4 to 6 show images of Comparative Examples 4 to 6, and FIGS. 7 and 8 show images of Examples 2 and 3, respectively.

Series [3] relates to CHO cells. In words: Evaluation of cytotoxicity of dyes (cell forms before and after dyeing). It is filed as cell-based, Chinese Hamster. The settings on record: cell form before and after dyeing, differential interference figure. On the procedure:
For evaluation of cytotoxicity due to a dye, cell forms before and after dyeing were confirmed from a differential interference figure using near-infrared light. Cytotoxicity was evaluated by particularly focusing on two points that 1) a cell having an extended structure due to interaction with an extracellular matrix loses its adhesion to thus separate from a cover glass and is rounded, and 2) a cell membrane having a smooth form becomes an inhomogeneous and uneven form, when the physiological condition of the cell deteriorates.

The test system of series [4] is cultured human normal astrocyte. The experiment in a line: SHG and TPF imaging of dye introduced into cultured human normal astrocyte. It is filed as cell-based. Conditions: 100 μM dye in buffer, introduced by pipette, 1,000 nm exciting light; for SHG signal: SHG at 500 nm. On the procedure: A buffer containing 100 μM of FM4-64 was prepared and introduced into a cultured human normal astrocyte using a pipette. The dye that was introduced into the cell spreads throughout the entire cell over time.
For the measurement, a multiphoton microscope capable of SHG imaging and TPF imaging obtained by incorporating a tunable femtosecond mode synchronous infrared laser into a commercially available confocal laser scanning microscope was used as the light source. By irradiating with 1,000 nm of exciting light, an SHG signal light having a wavelength of 500 nm is generated from the dye in the same direction as the direction in which an infrared pulse laser travels. The signal can be detected in a photomultiplier tube provided on the laser light traveling direction side. A back scattered component of the TPF signal light is also observed by irradiating with the same exciting light.
SHG and TPF imaging was carried out in the same manner as Comparative Example 1 except for using Ap1 to Ap3 as dyes, and these cases were Comparative Examples 2 and 3 and Example 1, respectively.

Another series concerns nerve cell. Conditions: dye introduced from the cell exterior, femtosecond laser; cited from earlier work.

As to `CCCCN(CCCC)c1ccc(/N=N/c2ccc(S(=O)(=O)O)cc2)cc1` [#1], in series [1], the “Dissolving in DMSO” value is listed as “easily dissolved” and the solubility – broadly, how much of the substance goes into solution per volume – was about 100 µM (≈ 39 µg/mL). In addition, in the series on CHO cells [2], the SHG signal result is reported as “Good” and the TPF signal result is recorded as “None”. Moreover, the Toxicity result with CHO cells [3] was “High”.

Consider `CCCCCCN(CCCCCC)c1ccc(/N=N/c2ccc(S(=O)(=O)O)cc2)cc1` [#2], for which, in series [1], the “Dissolving in DMSO” value is on record as “easily dissolved” and the solubility was about 100 µM (≈ 44.6 µg/mL). Further, in the series with CHO cells [2], the SHG signal result is “Good” and the TPF signal entry was “None”. In addition, the Toxicity result with CHO cells [3] is reported as “High”.

In the case of `CCCCCCCCN(CCCCCCCC)c1ccc(/N=N/c2ccc(S(=O)(=O)O)cc2)cc1` [#3], in series [1], the “Dissolving in DMSO” value was “easily dissolved” and the solubility was about 100 µM (≈ 50.2 µg/mL). In the series with CHO cells [2], the SHG signal result is listed as “Good” and the TPF signal entry was “None”. Besides, in the series with CHO cells [3], the Toxicity entry is “Some”.

Turning to `CCCCCCN(CCCCCC)c1ccc(/N=N/c2ccc(C=O)cc2)cc1` [#4], in series [1], the “Dissolving in DMSO” value was “no dissolving” and the “Solubility (μM)” value is “Insoluble”. Besides, in the series on CHO cells [2], the SHG signal entry was “not obtained at all” and the TPF signal result is reported as “not obtained at all”.

For `CCCCCCN(CCCCCC)c1ccc(/N=N/c2ccc(C=C(C#N)C#N)cc2)cc1` [#5], in series [1], the “Dissolving in DMSO” value was “no dissolving” and the “Solubility (μM)” value was “Insoluble”. Also, in the series with CHO cells [2], the SHG signal result is on record as “not obtained at all” and the TPF signal result is “not obtained at all”.

`CCCCCCN(CCCCCC)c1ccc(/N=N/c2cc[n+](CCCS(=O)(=O)[O-])cc2)cc1` [#6, (E)-3-(4-((4-(dihexylamino)phenyl)diazenyl)pyridin-1-ium-1-yl)propane-1-sulfonate]: in series [1], the “Dissolving in DMSO” value is on record as “poor solubility”, the solubility was under 100 µM and the “Solubility into a buffer” value was “no problem”. Further, in the series on CHO cells [2], the SHG signal result is “observed and Fine”; the TPF signal entry was “not observed and None”. In the series with CHO cells [3], the Toxicity result was “no problem; also recorded: Little”.

With `CCCCCCCCN(CCCCCCCC)c1ccc(/N=N/c2cc[n+](CCCS(=O)(=O)[O-])cc2)cc1` [#7, (E)-3-(4-((4-(dioctylamino)phenyl)diazenyl)pyridin-1-ium-1-yl)propane-1-sulfonate], in series [1], the “Dissolving in DMSO” value is “poor solubility”, the solubility is under 100 µM and the “Solubility into a buffer” value is “no problem”. Also, in the series with CHO cells [2], the SHG signal entry is “observed and Fine”; the TPF signal entry is “not observed and None”. Further, the Toxicity entry in the series with CHO cells [3] was “no problem; also recorded: Little”.

`CCCCCCN(CCCCCC)c1ccc(/N=N/c2cc[n+](CCC[N+](CC)(CC)CC)cc2)cc1` [Ap3]: in series [4], the TPF signal result is “not observed” and the SHG signal entry is “can be observed”. For the same compound, in series [1], the concentration in solution (solubility) was 100 µM and the “Solubility into a buffer” value is “no problem”. In addition, in the series on CHO cells [2], the SHG signal result was “observed and Good”; the TPF signal entry was “not observed and None”. In the series with CHO cells [3], the Toxicity result is “no problem; also recorded: Little”.

For `CCN(CC)c1ccc(/C=C/C=C/C=C/c2cc[n+](CCC[N+](CC)(CC)CC)cc2)cc1` [FM4-64, reference compound], in series [4], the TPF signal entry is “observed” and the SHG signal entry is recorded as “observed”. In the series with nerve cell, the “Fluorescent (TPF) signal” value is “detected” and the SHG signal entry is “very strong”.
